According to article PMC6979384, “Characterization of the plant homeodomain (PHD) reader family for their histone tail interactions” (Epigenetics & Chromatin, 2020):

Legend:
Experiment in all cases: Histone peptide microarray
Format in all cases: binding, human
Settings in all cases: sheet "Array Heatmap"
SP140L = system: SP140L
From the text: (§1) To more comprehensively define the histone interactions of the 31 PHD readers identified from the domain microarray analyses, we probed each on an alternate microarray platform containing a library of 293 synthetic histone peptides with single or combinatorial PTMs (Additional file 2: Figure S4 and Additional file 3: Table S2).
(§2) The 31 GST-tagged PHD readers identified in the PHD finger domain array were expressed and purified as previously. Histone peptide arrays and peptide pulldown assays were conducted as recently described (specifically, the optimized protocol from Petell et al. for the former).
(§3) Supplementary file 13072_2020_328_MOESM3_ESM.xlsx: Additional file 3: Table S2. […] Excel Tab Peptide List is a compiled list of the entire 293 histone peptide library with amino acid sequence ranges. […] Each number corresponds to the peptide number designated in Peptide List. Excel Tab Average Signals is a compiled set of binding data: chromatin reader at 0.5 μM vs. entire 293 peptide library. Data is presented as the average and standard deviation of 4 replicates. The average signals are colored to indicate signal intensity with green being strong and white being weak/low. […] Key: red= stronger relative binding; blue = weaker relative binding. Excel Tab Array info summary is a table summarizing the domains, sequence coverage, array signal range, and noise for each of the GST-tagged readers assayed on the peptide microarrays.

CHD5 (PPCC) = system: CHD5 (PPCC)
From the text: as §1, §2, §3

KDM5A (3) = system: KDM5A (3)
From the text: as §1, §2, §3

BPTF (PB) = system: BPTF (PB)
From the text: as §1, §2, §3

ING3 = system: ING3
From the text: as §1, §2, §3

ING5 = system: ING5
From the text: as §1, §2, §3

PHRF1 (RP) = system: PHRF1 (RP)
From the text: as §1, §2, §3

PHF13 = system: PHF13
From the text: as §1, §2, §3

KDM5B (3) = system: KDM5B (3)
From the text: as §1, §2, §3

KDM5A (1) = system: KDM5A (1)
From the text: as §1, §2, §3

BAZ2B = system: BAZ2B
From the text: as §1, §2, §3

KDM5B (1) = system: KDM5B (1)
From the text: as §1, §2, §3

PHF23 = system: PHF23
From the text: as §1, §2, §3

TRIM66 (PB) = system: TRIM66 (PB)
From the text: as §1, §2, §3

KDM4C (TTP) = system: KDM4C (TTP)
From the text: as §1, §2, §3

CHD5 (PCC) = system: CHD5 (PCC)
From the text: as §1, §2, §3

AIRE (PP) = system: AIRE (PP)
From the text: as §1, §2, §3

ING2 = system: ING2
From the text: as §1, §2, §3

CHD4 (PPCC) = system: CHD4 (PPCC)
From the text: as §1, §2, §3

PHF8 = system: PHF8
From the text: as §1, §2, §3

MLL5 = system: MLL5
From the text: as §1, §2, §3

KDM7A = system: KDM7A
From the text: as §1, §2, §3

MORC3 (CW) = system: MORC3 (CW)
From the text: as §1, §2, §3

PHF2 = system: PHF2
From the text: as §1, §2, §3

TAF3 = system: TAF3
From the text: as §1, §2, §3

RAG2 = system: RAG2
From the text: as §1, §2, §3

PHF21A = system: PHF21A
From the text: as §1, §2, §3

ING4 = system: ING4
From the text: as §1, §2, §3

DIDO1 = system: DIDO1
From the text: as §1, §2, §3

DPF2 (PPC2W2) = system: DPF2 (PPC2W2)
From the text: as §1, §2, §3

ING1 = system: ING1
From the text: as §1, §2, §3

In the case of H2BK16ac: H2B 1-24 [Peptide H2BK16ac], the “Array Heatmap value (peptide array signal)” value (“Array Heatmap value” for short) (SP140L; SP140L, each array performed twice, total n = 4) is reported as 0.3579, the “Array Heatmap value” value (CHD5 (PPCC); CHD5 (PPCC), each array performed twice, total n = 4) is reported as 0.5498 and the “Array Heatmap value” value (KDM5A (3); KDM5A (3), each array performed twice, total n = 4) is reported as 0.4534. The “Array Heatmap value” value (BPTF (PB); BPTF (PB), each array performed twice, total n = 4) was 0.3487, the “Array Heatmap value” value (ING3; ING3, each array performed twice, total n = 4) was 0.4774 and the “Array Heatmap value” value (ING5; ING5, each array performed twice, total n = 4) was 0.3562. For the same substance, the “Array Heatmap value” value (PHRF1 (RP); PHRF1 (RP), each array performed twice, total n = 4) was 0.501, the “Array Heatmap value” value (PHF13; PHF13, each array performed twice, total n = 4) was 0.6297 and the “Array Heatmap value” value (KDM5B (3); KDM5B (3), each array performed twice, total n = 4) was 0.4678. For the same substance, the “Array Heatmap value” value (KDM5A (1); KDM5A (1), each array performed twice, total n = 4) was 0.4583, the “Array Heatmap value” value (BAZ2B; BAZ2B, each array performed twice, total n = 4) was 0.4705 and the “Array Heatmap value” value (KDM5B (1); KDM5B (1), each array performed twice, total n = 4) was 0.6719. The “Array Heatmap value” value (PHF23; PHF23, each array performed twice, total n = 4) was 0.5681, the “Array Heatmap value” value (TRIM66 (PB); TRIM66 (PB), each array performed twice, total n = 4) was 0.6089 and the “Array Heatmap value” value (KDM4C (TTP); KDM4C (TTP), each array performed twice, total n = 4) was 0.4673. For the same substance, the “Array Heatmap value” value (CHD5 (PCC); CHD5 (PCC), each array performed twice, total n = 4) was 0.7842, the “Array Heatmap value” value (AIRE (PP); AIRE (PP), each array performed twice, total n = 4) was 0.4203 and the “Array Heatmap value” value (ING2; ING2, each array performed twice, total n = 4) was 0.6054. For the same substance, the “Array Heatmap value” value (CHD4 (PPCC); CHD4 (PPCC), each array performed twice, total n = 4) was 0.5943, the “Array Heatmap value” value (PHF8; PHF8, each array performed twice, total n = 4) was 0.3517 and the “Array Heatmap value” value (MLL5; MLL5, each array performed twice, total n = 4) was 0.5839. For the same substance, the “Array Heatmap value” value (KDM7A; KDM7A, each array performed twice, total n = 4) was 0.3335, the “Array Heatmap value” value (MORC3 (CW); MORC3 (CW), each array performed twice, total n = 4) was 0.3691 and the “Array Heatmap value” value (PHF2; PHF2, each array performed twice, total n = 4) was 0.5633. For the same substance, the “Array Heatmap value” value (TAF3; TAF3, each array performed twice, total n = 4) was 0.2759, the “Array Heatmap value” value (RAG2; RAG2, each array performed twice, total n = 4) was 0.2422 and the “Array Heatmap value” value (PHF21A; PHF21A, each array performed twice, total n = 4) was 0.4621. For the same substance, the “Array Heatmap value” value (ING4; ING4, each array performed twice, total n = 4) was 0.4481, the “Array Heatmap value” value (DIDO1; DIDO1, each array performed twice, total n = 4) was 0.7223 and the “Array Heatmap value” value (DPF2 (PPC2W2); DPF2 (PPC2W2), each array performed twice, total n = 4) was 0.6685. The “Array Heatmap value” value (ING1; ING1, each array performed twice, total n = 4) was 0.5501.
In the case of H3 15-34: H3 15-34, the “Array Heatmap signal, SP140L” value (SP140L; GST-tagged SP140L, arrays performed twice, total replicate number n = 4) is reported as 0.3812, the “Array Heatmap signal, CHD5 (PPCC)” value (CHD5 (PPCC); GST-tagged CHD5 (PPCC), arrays performed twice, total replicate number n = 4) is reported as 0.6174 and the “Array Heatmap signal, KDM5A (3)” value (KDM5A (3); GST-tagged KDM5A (3), arrays performed twice, total replicate number n = 4) is reported as 0.4281. For the same substance, the “Array Heatmap signal, BPTF (PB)” value (BPTF (PB); GST-tagged BPTF (PB), arrays performed twice, total replicate number n = 4) was 0.3761, the “Array Heatmap signal, ING3” value (ING3; GST-tagged ING3, arrays performed twice, total replicate number n = 4) was 0.5057 and the “Array Heatmap signal, ING5” value (ING5; GST-tagged ING5, arrays performed twice, total replicate number n = 4) was 0.4109. For the same substance, the “Array Heatmap signal, PHRF1 (RP)” value (PHRF1 (RP); GST-tagged PHRF1 (RP), arrays performed twice, total replicate number n = 4) was 0.4582, the “Array Heatmap signal, PHF13” value (PHF13; GST-tagged PHF13, arrays performed twice, total replicate number n = 4) was 0.6527 and the “Array Heatmap signal, KDM5B (3)” value (KDM5B (3); GST-tagged KDM5B (3), arrays performed twice, total replicate number n = 4) was 0.4984. For the same substance, the “Array Heatmap signal, KDM5A (1)” value (KDM5A (1); GST-tagged KDM5A (1), arrays performed twice, total replicate number n = 4) was 0.5387, the “Array Heatmap signal, BAZ2B” value (BAZ2B; GST-tagged BAZ2B, arrays performed twice, total replicate number n = 4) was 0.514 and the “Array Heatmap signal, KDM5B (1)” value (KDM5B (1); GST-tagged KDM5B (1), arrays performed twice, total replicate number n = 4) was 0.7112. For the same substance, the “Array Heatmap signal, PHF23” value (PHF23; GST-tagged PHF23, arrays performed twice, total replicate number n = 4) was 0.5205, the “Array Heatmap signal, TRIM66 (PB)” value (TRIM66 (PB); GST-tagged TRIM66 (PB), arrays performed twice, total replicate number n = 4) was 0.5952 and the “Array Heatmap signal, KDM4C (TTP)” value (KDM4C (TTP); GST-tagged KDM4C (TTP), arrays performed twice, total replicate number n = 4) was 0.5661. The “Array Heatmap signal, CHD5 (PCC)” value (CHD5 (PCC); GST-tagged CHD5 (PCC), arrays performed twice, total replicate number n = 4) was 0.8306, the “Array Heatmap signal, AIRE (PP)” value (AIRE (PP); GST-tagged AIRE (PP), arrays performed twice, total replicate number n = 4) was 0.5155 and the “Array Heatmap signal, ING2” value (ING2; GST-tagged ING2, arrays performed twice, total replicate number n = 4) was 0.6111. For the same substance, the “Array Heatmap signal, CHD4 (PPCC)” value (CHD4 (PPCC); GST-tagged CHD4 (PPCC), arrays performed twice, total replicate number n = 4) was 0.5968, the “Array Heatmap signal, PHF8” value (PHF8; GST-tagged PHF8, arrays performed twice, total replicate number n = 4) was 0.3827 and the “Array Heatmap signal, MLL5” value (MLL5; GST-tagged MLL5, arrays performed twice, total replicate number n = 4) was 0.5742. For the same substance, the “Array Heatmap signal, KDM7A” value (KDM7A; GST-tagged KDM7A, arrays performed twice, total replicate number n = 4) was 0.4439, the “Array Heatmap signal, MORC3 (CW)” value (MORC3 (CW); GST-tagged MORC3 (CW), arrays performed twice, total replicate number n = 4) was 0.3679 and the “Array Heatmap signal, PHF2” value (PHF2; GST-tagged PHF2, arrays performed twice, total replicate number n = 4) was 0.4604. The “Array Heatmap signal, TAF3” value (TAF3; GST-tagged TAF3, arrays performed twice, total replicate number n = 4) was 0.3059, the “Array Heatmap signal, RAG2” value (RAG2; GST-tagged RAG2, arrays performed twice, total replicate number n = 4) was 0.2601 and the “Array Heatmap signal, PHF21A” value (PHF21A; GST-tagged PHF21A, arrays performed twice, total replicate number n = 4) was 0.5191. The “Array Heatmap signal, ING4” value (ING4; GST-tagged ING4, arrays performed twice, total replicate number n = 4) was 0.5265, the “Array Heatmap signal, DIDO1” value (DIDO1; GST-tagged DIDO1, arrays performed twice, total replicate number n = 4) was 0.6822 and the “Array Heatmap signal, DPF2 (PPC2W2)” value (DPF2 (PPC2W2); GST-tagged DPF2 (PPC2W2), arrays performed twice, total replicate number n = 4) was 0.6945. The “Array Heatmap signal, ING1” value (ING1; GST-tagged ING1, arrays performed twice, total replicate number n = 4) was 0.5616.
